# Read-outs that look alike come from different tables or passages of the source.
# Target: T1, Chk1 (Homo sapiens, UniProt O14757)
# T1 construct: purchased Upstate Biotechnology
# T1 sequence (O14757 1-476): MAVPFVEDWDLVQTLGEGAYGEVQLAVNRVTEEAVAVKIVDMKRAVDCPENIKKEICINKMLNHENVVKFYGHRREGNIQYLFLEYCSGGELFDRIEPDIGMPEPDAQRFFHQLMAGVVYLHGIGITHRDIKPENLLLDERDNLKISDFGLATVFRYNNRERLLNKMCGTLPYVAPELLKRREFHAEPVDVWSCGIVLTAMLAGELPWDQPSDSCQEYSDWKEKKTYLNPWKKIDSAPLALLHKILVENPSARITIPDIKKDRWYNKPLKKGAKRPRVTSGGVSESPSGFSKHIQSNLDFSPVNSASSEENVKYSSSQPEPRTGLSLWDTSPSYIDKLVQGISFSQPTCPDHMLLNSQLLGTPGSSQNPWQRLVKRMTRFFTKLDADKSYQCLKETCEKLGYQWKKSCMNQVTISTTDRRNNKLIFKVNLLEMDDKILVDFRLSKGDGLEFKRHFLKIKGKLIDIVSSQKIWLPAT
# Assay: Chk1 kinase assay: incorporation of γ-33P ATP into immobilized myelin basic protein
# Assay type: biochemical
# Details: read-out: Chk1 IC50
# Method in brief: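 Plates coated with MBP, then kinase reactions in Hepes pH 7.6 buffer with 10 mM MgCl2 and 1% DMSO were started by adding unlabeled plus γ-33P ATP (10 μM for Chk1 at 10 nM enzyme; 30 μM for Chk2 at 20 nM enzyme). After 1 h at room temperature, plates were washed and counted.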
# [1] = Table 11, Chk1 only, class symbols A-D
SMILES,"IC50 (Table 11, Chk1 only) [nM]",IC50 [nM],IC50 [1] [nM]
"Nc1ncc(-c2cccc(C(=O)NCc3ccccc3)c2)nc1C(=O)NCCCNS(=O)(=O)c1cccc2cccnc12 [Example 653, 3-amino-6-(3-{[(phenylmethyl)amino]carbonyl}phenyl)-N-{3-[(quinolin-8-ylsulfonyl)amino]propyl}pyrazine-2-carboxamide]",≥ 10000,,
"CNC(=O)c1nc(-c2cccc(-c3noc(CCc4ccccc4)n3)c2)cnc1N [Example 138, 3-amino-N-methyl-6-{3-[5-(2-phenylethyl)-1,2,4-oxadiazol-3-yl]phenyl}pyrazine-2-carboxamide]",,1000 to 10000,
"CNC(=O)c1nc(-c2cccc(CNC(=O)Cc3c[nH]c4ccccc34)c2)cnc1N [Example 336, 3-amino-6-(3-{[(1H-indol-3-ylacetyl)amino]methyl}phenyl)-N-methylpyrazine-2-carboxamide]",,50 to 1000,
"CNC(=O)c1nc(-c2cccc(C(=O)NCc3ccc(F)c(F)c3)c2)cnc1N [Example 288, 3-amino-6-[3-({[(3,4-difluorophenyl)methyl]amino}carbonyl)phenyl]-N-methylpyrazine-2-carboxamide]",,50 to 1000,
"CNC(=O)c1nc(-c2cccc(C(=O)NCc3ccc(C)cc3)c2)cnc1N [Example 101, 3-amino-N-methyl-6-[3-({[(4-methylphenyl)methyl]amino}carbonyl)phenyl]pyrazine-2-carboxamide]",,50 to 1000,
"CN(C)CCCNC(=O)c1nc(-c2cccc(CN[C@H]3CCc4ccccc43)c2)cnc1N [Example 585, 3-amino-6-(3-{[(1S)-2,3-dihydro-1H-inden-1-ylamino]methyl}phenyl)-N-[3-(dimethylamino)propyl]pyrazine-2-carboxamide]",1000 to 10000,,
"CN(C)c1ccc(CN2CC[C@H](NC(=O)c3nc(-c4cccc(C(=O)NCc5ccccc5)c4)cnc3N)C2)cc1 [Example 690, 3-amino-N-((3S)-1-{[4-(dimethylamino)phenyl]methyl}pyrrolidin-3-yl)-6-(3-{[(phenylmethyl)amino]carbonyl}phenyl)pyrazine-2-carboxamide]",1000 to 10000,,
"Nc1ncc(-c2cccc(C(=O)NCc3ccccc3)c2)nc1C(=O)NCCCNS(=O)(=O)c1ccccn1 [Example 654, 3-amino-6-(3-{[(phenylmethyl)amino]carbonyl}phenyl)-N-{3-[(pyridin-2-ylsulfonyl)amino]propyl}pyrazine-2-carboxamide]",1000 to 10000,,
"Nc1ncc(-c2cccc(C(=O)NCc3cccc(Cl)c3F)c2)nc1C(=O)N[C@H]1CCCCNC1 [Example 1024, 3-amino-N-[(3S)-azepan-3-yl]-6-[3-({[(3-chloro-2-fluorophenyl)methyl]amino}carbonyl)phenyl]pyrazine-2-carboxamide]",,,< 50
"Nc1ncc(-c2cccc(C(=O)NCc3ccc(-n4cccn4)cc3)c2)nc1C(=O)N[C@H]1CCCNC1 [Example 1033, 3-amino-N-[(3S)-piperidin-3-yl]-6-{3-[({[4-(1H-pyrazol-1-yl)phenyl]methyl}amino)carbonyl]phenyl}pyrazine-2-carboxamide]",,,< 50
"Nc1ncc(-c2cccc(C(=O)NC[C@H]3CCCN3)c2)nc1C(=O)N[C@H]1CCCNC1 [Example 927, 3-amino-N-[(3S)-piperidin-3-yl]-6-[3-({[(2R)-pyrrolidin-2-ylmethyl]amino}carbonyl)phenyl]pyrazine-2-carboxamide]",,,< 50
"Nc1ncc(-c2cccc(C(=O)N[C@H]3CCc4ccccc43)c2)nc1C(=O)N[C@@H]1CCCNC1 [Example 765, 3-amino-6-(3-{[(1S)-2,3-dihydro-1H-inden-1-ylamino]carbonyl}phenyl)-N-[(3R)-piperidin-3-yl]pyrazine-2-carboxamide]",< 50,,
"CNC(=O)c1nc(-c2cccc(C(=O)NCc3ccc(C)c(C)c3)c2)cnc1N [Example 286, 3-amino-6-[3-({[(3,4-dimethylphenyl)methyl]amino}carbonyl)phenyl]-N-methylpyrazine-2-carboxamide]",,50 to 1000,
"Nc1ncc(-c2cccc(C(=O)NCc3ccc4c(c3)OCCO4)c2)nc1C(=O)N[C@H]1CCCCNC1 [Example 1020, 3-amino-N-[(3S)-azepan-3-yl]-6-(3-{[(2,3-dihydro-1,4-benzodioxin-6-ylmethyl)amino]carbonyl}phenyl)pyrazine-2-carboxamide]",,,< 50
"Nc1ncc(-c2cccc(C(=O)NCc3cccc(Cl)c3Cl)c2)nc1C(=O)N[C@H]1CCCNC1 [Example 1003, 3-amino-6-[3-({[(2,3-dichlorophenyl)methyl]amino}carbonyl)phenyl]-N-[(3S)-piperidin-3-yl]pyrazine-2-carboxamide]",,,< 50
"CC(C)(C)OC(=O)NCCNC(=O)c1nc(-c2cccc(C(=O)NCc3ccccc3)c2)cnc1N [Example 615, 1,1-dimethylethyl [2-({[3-amino-6-(3-{[(phenylmethyl)amino]carbonyl}phenyl)pyrazin-2-yl]carbonyl}amino)ethyl]carbamate]",≥ 10000,,
"CN(C)c1ccc(C(=O)Nc2cccc(-c3cnc(N)c(C(=O)N[C@H]4CCCNC4)n3)c2)c2ccccc12 [Example 900, 3-amino-6-[3-({[4-(dimethylamino)naphthalen-1-yl]carbonyl}amino)phenyl]-N-[(3S)-piperidin-3-yl]pyrazine-2-carboxamide]",,,< 50
"CNC(=O)c1nc(-c2ccc(F)c(C(=O)NCc3ccccc3)c2)cnc1N [Example 291, 3-amino-6-(4-fluoro-3-{[(phenylmethyl)amino]carbonyl}phenyl)-N-methylpyrazine-2-carboxamide]",,50 to 1000,
"Nc1ncc(-c2cccc(C(=O)NCc3c(F)ccc(Cl)c3F)c2)nc1C(=O)N[C@H]1CCCNC1 [Example 1000, 3-amino-6-[3-({[(3-chloro-2,6-difluorophenyl)methyl]amino}carbonyl)phenyl]-N-[(3S)-piperidin-3-yl]pyrazine-2-carboxamide]",,,< 50

# Results, then the compound that gave them:
"IC50 (Table 11, Chk1 only) [nM]",IC50 [nM],IC50 [1] [nM],SMILES
≥ 10000,,,"Nc1ncc(-c2cccc(C(=O)NCc3ccccc3)c2)nc1C(=O)NCCCNC(=O)c1ccc(C(F)(F)F)nc1 [Example 652, 3-amino-6-(3-{[(phenylmethyl)amino]carbonyl}phenyl)-N-[3-({[6-(trifluoromethyl)pyridin-3-yl]carbonyl}amino)propyl]pyrazine-2-carboxamide]"
,1000 to 10000,,"C/N=C(\C)c1cccc(-c2cnc(N)c(C(=O)NC)n2)c1 [Example 59, 3-amino-N-methyl-6-{3-[(1E)-N-methylethanimidoyl]phenyl}pyrazine-2-carboxamide]"
,50 to 1000,,"CNC(=O)c1nc(-c2cccc(CNCC(c3ccccc3)c3ccccc3)c2)cnc1N [Example 393, 3-amino-6-(3-{[(2,2-diphenylethyl)amino]methyl}phenyl)-N-methylpyrazine-2-carboxamide]"
,,< 50,"Nc1ncc(-c2cccc(C(=O)NCc3ccc(-c4cnns4)cc3)c2)nc1C(=O)N[C@H]1CCCNC1 [Example 845, 3-amino-N-[(3S)-piperidin-3-yl]-6-{3-[({[4-(1,2,3-thiadiazol-5-yl)phenyl]methyl}amino)carbonyl]phenyl}pyrazine-2-carboxamide]"
50 to 1000,,,"CNC(=O)c1nc(-c2cccc(CNCc3cc(Br)ccc3F)c2)cnc1N [Example 444, 3-amino-6-[3-({[(5-bromo-2-fluorophenyl)methyl]amino}methyl)phenyl]-N-methylpyrazine-2-carboxamide]"
1000 to 10000,,,"C[C@H](NC(=O)c1cccc(-c2cnc(N)c(C(=O)N[C@H]3CCN(C(=O)OC(C)(C)C)C3)n2)c1)c1ccccc1 [Example 713, 1,1-dimethylethyl (3S)-3-[({3-amino-6-[3-({[(1S)-1-phenylethyl]amino}carbonyl)phenyl]pyrazin-2-yl}carbonyl)amino]pyrrolidine-1-carboxylate]"
,50 to 1000,,"CNC(=O)c1nc(-c2cccc(C(=O)NCc3cccc(C)c3)c2)cnc1N [Example 259, 3-amino-N-methyl-6-[3-({[(3-methylphenyl)methyl]amino}carbonyl)phenyl]pyrazine-2-carboxamide]"
,50 to 1000,,"CNC(=O)c1nc(-c2cccc(CN[C@H](C)c3ccccc3)c2)cnc1N [Example 420, 3-amino-N-methyl-6-[3-({[(1R)-1-phenylethyl]amino}methyl)phenyl]pyrazine-2-carboxamide]"
50 to 1000,,,"CNC(=O)c1nc(-c2cc(C(=O)N[C@H]3CCc4ccccc43)cc(C(=O)OC)c2)cnc1N [Example 790, methyl 3-{5-amino-6-[(methylamino)carbonyl]pyrazin-2-yl}-5-{[(1S)-2,3-dihydro-1H-inden-1-ylamino]carbonyl}benzoate]"
,,< 50,"Cc1cc(Cl)cc(Cl)c1CNC(=O)c1cccc(-c2cnc(N)c(C(=O)N[C@H]3CCCNC3)n2)c1 [Example 951, 3-amino-6-[3-({[(2,4-dichloro-6-methylphenyl)methyl]amino}carbonyl)phenyl]-N-[(3S)-piperidin-3-yl]pyrazine-2-carboxamide]"
,,50 to 1000,"Nc1ncc(-c2cccc(CNC(=O)Nc3ccccc3OC(F)(F)F)c2)nc1C(=O)N[C@H]1CCCNC1 [Example 919, 3-amino-N-[(3S)-piperidin-3-yl]-6-[3-({[({2-[(trifluoromethyl)oxy]phenyl}amino)carbonyl]amino}methyl)phenyl]pyrazine-2-carboxamide]"
